The text below walks through data of US10906889B2, “Polycyclic inhibitors of cyclin-dependent kinase 7 (CDK7)” (Dana-Farber Cancer Institute, Inc., priority 2013, dated 2021).

In one test the target is T1, CDK7 (Homo sapiens, UniProt P50613).
T1 construct: purchased Life Technologies (assay service)
The test can be described thus: Adapta kinase assay (Life Technologies), CDK7. It is filed as biochemical.

The test system of the next test is Jurkat cells. The test can be described thus: Cell proliferation (CellTiter-Glo, 72 hour), Jurkat. It is filed as cell-based. As to conditions: Homo sapiens, blood cancer cell line.
Where [1] appears, read: Table 1C, co-factors cyclin H and MNAT1, read-out: CDK7 IC50.

Where two headings read alike, the source gives them in different places.

T1 sequence (P50613 whole entry): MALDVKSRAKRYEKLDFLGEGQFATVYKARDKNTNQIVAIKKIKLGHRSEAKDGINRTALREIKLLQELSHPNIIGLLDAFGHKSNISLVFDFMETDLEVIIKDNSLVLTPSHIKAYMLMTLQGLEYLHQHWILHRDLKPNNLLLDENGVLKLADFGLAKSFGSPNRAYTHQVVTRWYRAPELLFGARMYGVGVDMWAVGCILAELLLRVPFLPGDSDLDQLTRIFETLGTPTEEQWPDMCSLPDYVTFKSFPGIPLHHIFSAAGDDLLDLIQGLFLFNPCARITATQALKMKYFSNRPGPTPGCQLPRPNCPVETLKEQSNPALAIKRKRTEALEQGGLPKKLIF
T1 sequence (P51946 whole entry partner): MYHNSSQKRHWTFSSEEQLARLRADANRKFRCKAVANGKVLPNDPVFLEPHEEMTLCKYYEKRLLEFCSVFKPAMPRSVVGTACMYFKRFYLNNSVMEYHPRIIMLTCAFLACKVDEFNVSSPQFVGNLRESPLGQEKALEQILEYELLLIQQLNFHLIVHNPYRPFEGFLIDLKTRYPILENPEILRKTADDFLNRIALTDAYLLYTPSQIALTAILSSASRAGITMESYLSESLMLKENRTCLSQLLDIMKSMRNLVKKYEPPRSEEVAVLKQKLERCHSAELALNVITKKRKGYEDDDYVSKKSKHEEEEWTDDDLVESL
T1 sequence (P51948 whole entry partner): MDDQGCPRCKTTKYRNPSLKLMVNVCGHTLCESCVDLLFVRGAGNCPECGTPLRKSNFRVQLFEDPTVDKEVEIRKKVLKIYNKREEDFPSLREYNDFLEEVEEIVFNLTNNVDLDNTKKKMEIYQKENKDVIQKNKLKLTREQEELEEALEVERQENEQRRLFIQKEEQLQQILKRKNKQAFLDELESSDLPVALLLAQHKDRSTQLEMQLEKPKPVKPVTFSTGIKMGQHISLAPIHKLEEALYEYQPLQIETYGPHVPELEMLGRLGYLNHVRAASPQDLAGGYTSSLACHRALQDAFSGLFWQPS

What is called IC50 is the concentration that inhibits the measured activity by half. As for `CN(C)C/C=C/C(=O)Nc1ccc(C(=O)NC2CC(O)CC(Nc3ncc(Cl)c(-c4c[nH]c5ccccc45)n3)C2)cc1` (racemic) [Compound 109, (+/−)-N-(-3-(5-chloro-4-(1H-indol-3-yl)pyrimidin-2-ylamino)-5-hydroxycyclohexyl)-4-((E)-4-(dimethylamino)but-2-enamido)benzamide], the IC50 at CDK7 (setting [1]) was < 100 nM; in the test with Jurkat cells it was < 500 nM.

`CN(C)C/C=C/C(=O)Nc1ccc(C(=O)NC2CC(F)CC(Nc3ncc(Cl)c(-c4c[nH]c5ccccc45)n3)C2)cc1` (racemic) [Compound 119, (+/−)-N-(3-(5-chloro-4-(1H-indol-3-yl)pyrimidin-2-ylamino)-5-fluorocyclohexyl)-4-((E)-4-(dimethylamino)but-2-enamido)benzamide]: the IC50 on CDK7 (setting [1]) is < 100 nM; in the test on Jurkat cells, < 500 nM.

Consider `CN(C)C/C=C/C(=O)Nc1ccc(C(=O)NC2CC(Nc3ncc(Cl)c(-c4c[nH]c5ccccc45)n3)CC(F)(F)C2)cc1` (racemic) [Compound 122, (+/−)-N-(5-(5-chloro-4-(1H-indol-3-yl)pyrimidin-2-ylamino)-3,3-difluorocyclohexyl)-4-((E)-4-(dimethylamino)but-2-enamido)benzamide], for which the IC50 at CDK7 (setting [1]) is < 100 nM; in the test with Jurkat cells, < 500 nM.

For `CN(C)C/C=C/C(=O)Nc1ccc(C(=O)NC2CCC(Nc3ncc(Cl)c(-c4c[nH]c5ccccc45)n3)CC2)cc1` (stereo not drawn) [Compound 105], the IC50 at CDK7 (setting [1]) is < 100 nM; at CDK7 (Table 2, co-factors cyclin H and MNAT1, read-out: CDK7 (calculated IC50)) it was < 100 nM.

With `CN(C)C/C=C/C(=O)Nc1ccc(C(=O)N[C@H]2CC[C@H](Nc3ncc(Cl)c(-c4c[nH]c5ccccc45)n3)CC2)cc1` [Compound 106], at CDK7 (setting [1]), the IC50 was < 100 nM.

With `CN(C)C/C=C/C(=O)Nc1ccc(C(=O)NC23CC4CC(C2)CC(Nc2ncc(Cl)c(-c5c[nH]c6ccccc56)n2)(C4)C3)cc1` [Compound 108, (E)-N-(3-(5-chloro-4-(1H-indol-3-yl)pyrimidin-2-ylamino)tricyclo[3.3.1.1^3,7]decanyl)-4-(4-(dimethylamino)but-2-enamido)benzamide], the results for the IC50 at CDK7 (setting [1]) and with Jurkat cells were 100 to 1000 nM and 500 to 5000 nM, respectively.

Consider `O=C(/C=C/CN1CCOCC1)Nc1ccc(C(=O)N[C@H]2CCC[C@@H](Nc3ncc(Cl)c(-c4c[nH]c5ccccc45)n3)C2)cc1` [Compound 110, N-((1S,3R)-3-(5-chloro-4-(1H-indol-3-yl)pyrimidin-2-ylamino)cyclohexyl)-4-((E)-4-morpholinobut-2-enamido)benzamide], for which the IC50 is < 100 nM at CDK7 (setting [1]) and < 500 nM in the test with Jurkat cells.

For `CN1CCN(C/C=C/C(=O)Nc2ccc(C(=O)N[C@H]3CCC[C@@H](Nc4ncc(Cl)c(-c5c[nH]c6ccccc56)n4)C3)cc2)CC1` [Compound 111, N-((1S,3R)-3-(5-chloro-4-(1H-indol-3-yl)pyrimidin-2-ylamino)cyclohexyl)-4-((E)-4-(4-methylpiperazin-1-yl)but-2-enamido)benzamide], the IC50 is < 100 nM on CDK7 (setting [1]) and < 500 nM in the test with Jurkat cells.

For `C=CC(=O)Nc1ccc(C(=O)N[C@H]2CCC[C@@H](Nc3ncc(Cl)c(-c4c[nH]c5ccccc45)n3)C2)cc1` [Compound 112, 4-acrylamido-N-((1S,3R)-3-(5-chloro-4-(1H-indol-3-yl)pyrimidin-2-ylamino)cyclohexyl)benzamide], the IC50 on CDK7 (setting [1]) is < 100 nM; in the test with Jurkat cells, < 500 nM.

Take `C=C(C)C(=O)Nc1ccc(C(=O)N[C@H]2CCC[C@@H](Nc3ncc(Cl)c(-c4c[nH]c5ccccc45)n3)C2)cc1` [Compound 113, N-((1S,3R)-3-(5-chloro-4-(1H-indol-3-yl)pyrimidin-2-ylamino)cyclohexyl)-4-methacrylamidobenzamide]: the IC50 lay in the range of 100 to 1000 nM on CDK7 (setting [1]) and 500 to 5000 nM in the test with Jurkat cells.

As to `CN(C)C/C=C/C(=O)Nc1ccc(NC(=O)[C@H]2CCC[C@@H](Nc3ncc(Cl)c(-c4c[nH]c5ccccc45)n3)C2)cc1` [Compound 114, (1S,3R,E)-3-(5-chloro-4-(1H-indol-3-yl)pyrimidin-2-ylamino)-N-(4-(4-(dimethylamino)but-2-enamido)phenyl)cyclohexanecarboxamide], the IC50 on CDK7 (setting [1]) was < 100 nM; with Jurkat cells, < 500 nM.

Turning to `CN(C)C/C=C/C(=O)Nc1ccc(C(=O)N[C@H]2CCC[C@@H](Nc3ncc(C4CC4)c(-c4c[nH]c5ccccc45)n3)C2)cc1` [Compound 115, N-((1S,3R)-3-(5-cyclopropyl-4-(1H-indol-3-yl)pyrimidin-2-ylamino)cyclohexyl)-4-((E)-4-(dimethylamino)but-2-enamido)benzamide], the IC50 at CDK7 (setting [1]) is < 100 nM; in the test on Jurkat cells, < 500 nM.

Turning to `CN(C)C/C=C/C(=O)Nc1ccc(C(=O)N[C@H]2CCC[C@@H](Nc3ncc(Cl)c(-c4cccnc4)n3)C2)cc1` [Compound 116, N-((1S,3R)-3-(5-chloro-4-(pyridin-3-yl)pyrimidin-2-ylamino)cyclohexyl)-4-((E)-4-(dimethylamino)but-2-enamido)benzamide], the IC50 on CDK7 (setting [1]) is 100 to 1000 nM; with Jurkat cells, < 500 nM.

With `CN(C)C/C=C/C(=O)Nc1ccc(C(=O)N[C@H]2CCC[C@@H](Nc3nccc(-c4c[nH]c5ccccc45)n3)C2)cc1` [Compound 132, N-((1S,3R)-3-(4-(1H-indol-3-yl)pyrimidin-2-ylamino)cyclohexyl)-4-((E)-4-(dimethylamino)but-2-enamido)benzamide], the IC50 at CDK7 (setting [1]) is > 1000 nM.

In the case of `C=CC(=O)Nc1ccc([C@@H](N[C@H]2CCC[C@@H](Nc3ncc(Cl)c(-c4c[nH]c5ccccc45)n3)C2)C(F)(F)F)cc1` [Compound 136, N-(4-((R)-1-((1S,3R)-3-(5-chloro-4-(1H-indol-3-yl)pyrimidin-2-ylamino)cyclohexylamino)-2,2,2-trifluoroethyl)phenyl)acrylamide], the IC50 on CDK7 (setting [1]) was > 1000 nM.

Regarding `CN(C)C/C=C/C(=O)Nc1ccc(C(=O)N[C@H]2CCC[C@@H](Nc3ncc(Cl)c(-c4cn(C)c5ccccc45)n3)C2)cc1` [Compound 150], the IC50 at CDK7 (setting [1]) is < 100 nM.

In the case of `C=CC(=O)Nc1ccc(C(=O)N[C@H]2CCC[C@@H](Nc3ncc(Cl)c(-c4n[nH]c5ccccc45)n3)C2)cc1` [Compound 151, 4-acrylamido-N-((1S,3R)-3-((5-chloro-4-(1H-indazol-3-yl)pyrimidin-2-yl)amino)cyclohexyl)benzamide], the half-inhibitory concentration (IC50) at CDK7 (setting [1]) is < 100 nM.

In the case of `C=CC(=O)Nc1ccc(C(=O)N[C@H]2CCC[C@@H](Nc3ncc(Cl)c(-c4c(C)[nH]c5ccccc45)n3)C2)cc1` [Compound 153, 4-acrylamido-N-((1S,3R)-3-((5-chloro-4-(2-methyl-1H-indol-3-yl)pyrimidin-2-yl)amino)cyclohexyl)benzamide], the IC50 on CDK7 (setting [1]) is < 100 nM.

Turning to `Cc1[nH]c2ccccc2c1-c1nc(N[C@@H]2CCC[C@H](NC(=O)c3ccc(NC(=O)/C=C/CN(C)C)cc3)C2)ncc1Cl` [Compound 154, N-((1S,3R)-3-((5-chloro-4-(2-methyl-1H-indol-3-yl)pyrimidin-2-yl)amino)cyclohexyl)-4-((E)-4-(dimethylamino)but-2-enamido)benzamide], the IC50 on CDK7 (setting [1]) was < 100 nM.

Regarding `C=CC(=O)Nc1cccc(CO[C@H]2CC[C@H](Nc3ncc(Cl)c(-c4c[nH]c5ccccc45)n3)CC2)c1` [Compound 155, N-(3-((((1R,4R)-4-((5-chloro-4-(1H-indol-3-yl)pyrimidin-2-yl)amino)cyclohexyl)oxy)methyl)phenyl)acrylamide], the IC50 at CDK7 (setting [1]) was > 1000 nM.

Regarding `CON(C)C/C=C/C(=O)Nc1ccc(C(=O)N[C@H]2CCC[C@@H](Nc3ncc(Cl)c(-c4c[nH]c5ccccc45)n3)C2)cc1` [Compound 160], the IC50 at CDK7 (setting [1]) was in the range of 100 to 1000 nM.
